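Step 1: Grow cells in 96-well plates. Step 2: Expose to compound for 48 hours at 5 concentrations. Step 3: Interpolate endpoints linearly; if unreached, use highest concentration. GI50 = concentration required for 50% inhibition of growth. TGI: total growth inhibition.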
Assays:
Assay in all cases: inhibition of tumour cell growth, NCI panel, 48 h
IGROV1 ovarian = test system: IGROV1 ovarian
A498 renal = test system: A498 renal
NCI-H226 lung = test system: NCI-H226 lung
K-562 leukemia = test system: K-562 leukemia
SN12C renal = test system: SN12C renal
CCRF-CEM leukemia = test system: CCRF-CEM leukemia
ACHN renal = test system: ACHN renal
OVCAR-4 ovarian = test system: OVCAR-4 ovarian
HOP-92 NSCLC = test system: HOP-92 NSCLC

Compound	TGI (IGROV1 ovarian)	TGI (A498 renal)	TGI (NCI-H226 lung)	TGI (K-562 leukemia)	TGI (SN12C renal)	TGI (CCRF-CEM leukemia)	TGI (ACHN renal)	GI50 (OVCAR-4 ovarian)	TGI (OVCAR-4 ovarian)	GI50 (IGROV1 ovarian)	GI50 (A498 renal)	GI50 (NCI-H226 lung)	GI50 (HOP-92 NSCLC)	TGI (HOP-92 NSCLC)	GI50 (SN12C renal)	GI50 (CCRF-CEM leukemia)	GI50 (ACHN renal)	GI50 (K-562 leukemia)
Cc1ccc(Sc2cc([N+](=O)[O-])cc(Sc3ccc(C)cc3)c2Sc2ccc(C)cc2)cc1	> 100 µM	> 100 µM	> 100 µM	> 100 µM	> 100 µM	65.4 µM	> 100 µM	–	–	–	–	–	–	–	–	–	–	–
COC(=O)/C=C/c1cc(OC)c2c(c1)[C@@H](C(=O)OC)[C@H](c1ccc(OC)c(OC)c1)O2	> 100 µM	33 µM	> 100 µM	–	> 100 µM	> 100 µM	> 100 µM	4.76 µM	> 100 µM	3.84 µM	1.06 µM	38.4 µM	13.1 µM	> 100 µM	6.44 µM	0.983 µM	4.45 µM	–
COc1ccc(/C=C\c2cc(OC)c(OC(C)=O)c(OC)c2)cc1	> 100 µM	45 µM	> 100 µM	31 µM	30.8 µM	57.3 µM	> 100 µM	–	> 100 µM	–	–	–	–	68.3 µM	–	–	–	–
O=C1OC(/C=C/c2ccccc2)C(=O)C1=O (stereo not drawn)	> 100 µM	> 100 µM	> 100 µM	> 100 µM	–	> 100 µM	> 100 µM	–	> 100 µM	–	–	–	–	> 100 µM	–	–	–	–
O=C(c1ccccc1)C(c1ccccc1)C1(O)C(=O)Nc2ccc(Br)cc21 (stereo not drawn)	> 100 µM	> 100 µM	> 100 µM	80.8 µM	> 100 µM	47.7 µM	> 100 µM	–	> 100 µM	–	–	–	–	> 100 µM	–	–	–	–
COc1cccc(/C=N/[N-]C(N)=O)c1[O-].[Cu+2].c1ccncc1	49.9 µM	45.5 µM	44.6 µM	58.5 µM	46.7 µM	56.2 µM	> 100 µM	–	56.2 µM	–	–	–	–	31.5 µM	–	–	–	–
CCn1cc(C(=O)O)c(=O)c2cc(F)c(N3CCNCC3)nc21	> 100 µM	> 100 µM	> 100 µM	> 100 µM	> 100 µM	> 100 µM	> 100 µM	–	> 100 µM	–	–	–	–	> 100 µM	–	–	–	–
CC(=O)c1ccc(-c2ccc(C(C)=O)s2)s1	> 100 µM	4.16 µM	> 100 µM	> 100 µM	> 100 µM	> 100 µM	> 100 µM	–	> 100 µM	–	–	–	–	> 100 µM	–	–	–	–
O=C1C2Cc3ccccc3CN2C(=O)N1CCN1CCOCC1 (stereo not drawn)	> 100 µM	> 100 µM	> 100 µM	> 100 µM	> 100 µM	> 100 µM	> 100 µM	–	> 100 µM	–	–	–	–	–	–	–	–	–
COc1ccc2c(c1)[n+](=O)c(C(=O)C/C(=N\NC(=O)C[N+](C)(C)C)C(=O)Nc1cc(Cl)ccc1Cl)c(C)n2O	> 100 µM	> 100 µM	> 100 µM	> 100 µM	> 100 µM	> 100 µM	> 100 µM	–	> 100 µM	–	–	–	–	> 100 µM	–	–	–	–
Cn1c(=O)ccc2cc(C(=O)c3ccccc3)ccc21	> 100 µM	> 100 µM	99.7 µM	> 100 µM	> 100 µM	> 100 µM	> 100 µM	–	> 100 µM	–	–	–	–	> 100 µM	–	–	–	–
C=C1[C@@H]2CCC(C)(C)[C@H]1CCC(=O)[C@@H]2C(=O)OC	> 100 µM	> 100 µM	> 100 µM	> 100 µM	> 100 µM	> 100 µM	> 100 µM	–	> 100 µM	–	–	–	–	–	–	–	–	–
CCN(CC)[C@@H]1c2cc3c(cc2C(c2cc(OC)c(O)c(OC)c2)C2C(=O)CO[C@@H]21)OCO3 (stereo partly drawn)	> 100 µM	> 100 µM	> 100 µM	> 100 µM	> 100 µM	> 100 µM	> 100 µM	–	> 100 µM	–	–	–	–	> 100 µM	–	–	–	–
COc1ccc2nc3c(cc2c1)C(=O)CC(C(F)(F)F)C3 (stereo not drawn)	> 100 µM	1.55 µM	> 100 µM	> 100 µM	> 100 µM	> 100 µM	> 100 µM	27 µM	> 100 µM	0.792 µM	0.278 µM	3.28 µM	2.8 µM	94.2 µM	0.805 µM	0.223 µM	1.02 µM	0.406 µM
CCCCCCCCCCCCCCCc1nc(SCC(=O)O)n[nH]1	> 100 µM	–	–	> 100 µM	> 100 µM	> 100 µM	> 100 µM	–	> 100 µM	–	–	–	–	65 µM	–	–	–	–
C[C@]12CC[C@H](O)CC1CCC[C@@H]2O (stereo partly drawn)	> 100 µM	> 100 µM	–	> 100 µM	> 100 µM	> 100 µM	–	–	> 100 µM	–	–	–	–	> 100 µM	–	–	–	–
CC1(C)OC(=O)C(c2ccsc2)C(=O)O1	–	–	> 100 µM	> 100 µM	> 100 µM	> 100 µM	> 100 µM	–	> 100 µM	–	–	–	–	> 100 µM	–	–	–	–

Compound	TGI (IGROV1 ovarian)	TGI (A498 renal)	TGI (NCI-H226 lung)	TGI (K-562 leukemia)	TGI (SN12C renal)	TGI (CCRF-CEM leukemia)	TGI (ACHN renal)	GI50 (OVCAR-4 ovarian)	TGI (OVCAR-4 ovarian)	GI50 (IGROV1 ovarian)	GI50 (A498 renal)	GI50 (NCI-H226 lung)	GI50 (HOP-92 NSCLC)	TGI (HOP-92 NSCLC)	GI50 (SN12C renal)	GI50 (CCRF-CEM leukemia)	GI50 (ACHN renal)	GI50 (K-562 leukemia)
O=c1c2ccc(Br)cc2nc(-c2ccccc2)n1NC1OC(CO)C(O)C(O)C1O (stereo not drawn)	> 100 µM	> 100 µM	> 100 µM	> 100 µM	> 100 µM	> 100 µM	> 100 µM	–	> 100 µM	–	–	–	–	> 100 µM	–	–	–	–
OC1OC2COC(c3ccccc3)OC2C(O)C1O (stereo not drawn)	> 100 µM	> 100 µM	> 100 µM	> 100 µM	> 100 µM	> 100 µM	> 100 µM	–	> 100 µM	–	–	–	–	> 100 µM	–	–	–	–
Fc1cccc(C2SCc3nc4ccccc4n32)c1 (stereo not drawn)	> 100 µM	–	> 100 µM	> 100 µM	> 100 µM	> 100 µM	> 100 µM	–	–	–	–	–	–	55.7 µM	–	–	–	–
Cc1cc2c(C=O)[nH]nc2c(C#N)c1C	> 100 µM	> 100 µM	–	> 100 µM	78.6 µM	> 100 µM	> 100 µM	–	> 100 µM	–	–	–	–	99.4 µM	–	–	–	–
Nc1c(-c2ccc(-c3c(N)[n+]([O-])c4ccccc4[n+]3[O-])cc2)[n+]([O-])c2ccccc2[n+]1[O-]	47.5 µM	35.5 µM	45 µM	> 100 µM	34.4 µM	> 100 µM	31.1 µM	–	35.9 µM	–	–	–	–	> 100 µM	–	–	–	–
CC(=O)Oc1cc(OC(C)=O)c(OC(C)=O)c2c1CC1C(=O)C3(CCc4ccccc43)C(=O)C1C2 (stereo not drawn)	38.6 µM	–	–	28.1 µM	31 µM	75.9 µM	26.2 µM	–	24.1 µM	–	–	–	–	> 100 µM	–	–	–	–
CC(=O)NC1C(OCc2ccccc2)OC(COC(=O)CCCCCCCCCCNC(=O)CCNc2ccc([N+](=O)[O-])c3[nH]c4ccc(O)cc4c(=O)c23)C(O)C1OC(C)C(=O)N[C@H](C(=O)N[C@H](CCC(=O)O)C(N)=O)C(C)C (stereo partly drawn)	> 100 µM	> 100 µM	> 100 µM	> 100 µM	> 100 µM	82.5 µM	> 100 µM	–	> 100 µM	–	–	–	–	88.4 µM	–	–	–	–
O=C1OC(=O)C2C1C1(c3ccccc3)OC2(c2ccccc2)c2c(Br)c(Br)c(Br)c(Br)c21 (stereo not drawn)	> 100 µM	> 100 µM	> 100 µM	> 100 µM	> 100 µM	> 100 µM	–	–	> 100 µM	–	–	–	–	> 100 µM	–	–	–	–
OCC1C2C=CC(O2)[C@H]1CO (stereo partly drawn)	> 100 µM	> 100 µM	> 100 µM	–	> 100 µM	> 100 µM	> 100 µM	–	> 100 µM	–	–	–	–	> 100 µM	–	–	–	–
Nc1c(C(=O)Nc2cccc3ccccc23)sc2nc3c(cc12)CCCCCC3	> 50 µM	42.5 µM	> 50 µM	> 50 µM	> 50 µM	> 50 µM	> 50 µM	5.75 µM	> 50 µM	2.31 µM	2.48 µM	5.5 µM	6.58 µM	> 50 µM	3.4 µM	1.65 µM	2.79 µM	0.301 µM
COC(=O)C1=CCS(=O)(=O)C1	> 100 µM	> 100 µM	> 100 µM	> 100 µM	> 100 µM	–	> 100 µM	–	> 100 µM	–	–	–	–	> 100 µM	–	–	–	–
O=c1cc(/C=C/c2ccccc2)c2ccc(O/C(=C\c3ccccc3)c3nc4ccccc4c(=O)o3)cc2o1	> 100 µM	> 100 µM	–	> 100 µM	> 100 µM	66.5 µM	61.7 µM	–	> 100 µM	–	–	–	–	86.1 µM	–	–	–	–
CCC1(O)CC(c2ccccc2)N(C)C(c2ccccc2)C1 (stereo not drawn)	> 100 µM	> 100 µM	> 100 µM	> 100 µM	> 100 µM	> 100 µM	> 100 µM	–	> 100 µM	–	–	–	–	> 100 µM	–	–	–	–
OC1/C(=C/c2ccccc2)CNC/C1=C\c1ccccc1 (stereo not drawn)	> 100 µM	> 100 µM	–	–	> 100 µM	> 100 µM	> 100 µM	–	> 100 µM	–	–	–	–	> 100 µM	–	–	–	–
NCCCSCC(=O)O	> 100 µM	–	> 100 µM	> 100 µM	> 100 µM	–	> 100 µM	–	> 100 µM	–	–	–	–	> 100 µM	–	–	–	–
COc1cc(C2C(C(=O)Nc3ccccc3C)=C(C)NC(C)=C2C(=O)Nc2ccccc2C)ccc1O	> 100 µM	> 100 µM	> 100 µM	> 100 µM	> 100 µM	> 100 µM	> 100 µM	–	> 100 µM	–	–	–	–	> 100 µM	–	–	–	–

Reference: PubChem BioAssay (NCI)
